What was measured:
Assay in all cases: in vitro susceptibility, MIC by mini broth dilution
Format in all cases: cell-based
[1] = tested on: Staphylococcus aureus CVCC26003; conditions: strain CVCC26003
In short: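 S. aureus CVCC26003 was revived and subcultured twice, 20 h each at 35° C, on solid medium, then diluted 1:200 in CAMHB liquid medium. Compounds received an 11-step two-fold DMSO dilution in parallel duplicate rows. MIC was read by mini broth dilution per NCCLS guidance.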

[2] = tested on: Actinobacillus pleuropneumoniae CVCC262; conditions: strain CVCC262
In short: (§1)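 NCCLS-based mini broth dilution; inoculum from twice-streaked 35° C/20 h cultures, 1:200 in broth; compound two-fold series in DMSO, 11 steps, duplicates.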

[3] = tested on: Haemophilus parasuis
In short: as §1

[4] = tested on: Pasteurella multocida CVCC399; conditions: strain CVCC399
In short: as §1

[5] = tested on: Streptococcus equines CVCC556; conditions: strain CVCC556
In short: as §1

CCCN1C[C@H](C)[C@@H](O)[C@](C)(O)[C@@H](CC)OC(=O)[C@H](C)[C@@H](O[C@H]2C[C@@](C)(OC)[C@](O)(CNCc3ccc([N+](=O)[O-])cc3)[C@H](C)O2)[C@H](C)[C@@H](O[C@@H]2O[C@H](C)C[C@H](N(C)C)[C@H]2O)[C@](C)(O)C[C@H]1C [syzx-119]
MIC values, Staphylococcus aureus CVCC26003 [1]: 0.25 ug/mi | MIC values, Actinobacillus pleuropneumoniae CVCC262 [2]: 0.25 ug/mi | MIC values, Haemophilus parasuis [3]: 0.25 ug/mi | MIC values, Pasteurella multocida CVCC399 [4]: 1 ug/mi | MIC values, Streptococcus equines CVCC556 [5]: 0.25 ug/mi

CCCN1C[C@H](C)[C@@H](O)[C@](C)(O)[C@@H](CC)OC(=O)[C@H](C)[C@@H](O[C@H]2C[C@@](C)(OC)[C@](O)(CNCc3ccc(Cl)cc3)[C@H](C)O2)[C@H](C)[C@@H](O[C@@H]2O[C@H](C)C[C@H](N(C)C)[C@H]2O)[C@](C)(O)C[C@H]1C [syzx-120]
MIC values, Staphylococcus aureus CVCC26003 [1]: 0.25 ug/mi | MIC values, Actinobacillus pleuropneumoniae CVCC262 [2]: 0.25 ug/mi | MIC values, Haemophilus parasuis [3]: 0.25 ug/mi | MIC values, Pasteurella multocida CVCC399 [4]: 0.5 ug/mi | MIC values, Streptococcus equines CVCC556 [5]: 0.25 ug/mi

CCCN1C[C@H](C)[C@@H](O)[C@](C)(O)[C@@H](CC)OC(=O)[C@H](C)[C@@H](O[C@H]2C[C@@](C)(OC)[C@](O)(CNCc3cccnc3)[C@H](C)O2)[C@H](C)[C@@H](O[C@@H]2O[C@H](C)C[C@H](N(C)C)[C@H]2O)[C@](C)(O)C[C@H]1C [syzx-121]
MIC values, Staphylococcus aureus CVCC26003 [1]: 0.25 ug/mi | MIC values, Actinobacillus pleuropneumoniae CVCC262 [2]: 0.25 ug/mi | MIC values, Haemophilus parasuis [3]: 0.25 ug/mi | MIC values, Pasteurella multocida CVCC399 [4]: 0.5 ug/mi | MIC values, Streptococcus equines CVCC556 [5]: 0.5 ug/mi

CCCN1C[C@H](C)[C@@H](O)[C@](C)(O)[C@@H](CC)OC(=O)[C@H](C)[C@@H](O[C@H]2C[C@@](C)(OC)[C@](O)(CNCCCOCC)[C@H](C)O2)[C@H](C)[C@@H](O[C@@H]2O[C@H](C)C[C@H](N(C)C)[C@H]2O)[C@](C)(O)C[C@H]1C [syzx-122]
MIC values, Staphylococcus aureus CVCC26003 [1]: 1 ug/mi | MIC values, Actinobacillus pleuropneumoniae CVCC262 [2]: 1 ug/mi | MIC values, Haemophilus parasuis [3]: 0.5 ug/mi | MIC values, Pasteurella multocida CVCC399 [4]: 1 ug/mi | MIC values, Streptococcus equines CVCC556 [5]: 0.25 ug/mi

CCCN1C[C@H](C)[C@@H](O)[C@](C)(O)[C@@H](CC)OC(=O)[C@H](C)[C@@H](O[C@H]2C[C@@](C)(OC)[C@](O)(CNCCOC)[C@H](C)O2)[C@H](C)[C@@H](O[C@@H]2O[C@H](C)C[C@H](N(C)C)[C@H]2O)[C@](C)(O)C[C@H]1C [syzx-125]
MIC values, Staphylococcus aureus CVCC26003 [1]: 1 ug/mi | MIC values, Actinobacillus pleuropneumoniae CVCC262 [2]: 0.5 ug/mi | MIC values, Haemophilus parasuis [3]: 0.5 ug/mi | MIC values, Pasteurella multocida CVCC399 [4]: 2 ug/mi | MIC values, Streptococcus equines CVCC556 [5]: 0.25 ug/mi

CCCN1C[C@H](C)[C@@H](O)[C@](C)(O)[C@@H](CC)OC(=O)[C@H](C)[C@@H](O[C@H]2C[C@@](C)(OC)[C@](O)(CN(C)CCO)[C@H](C)O2)[C@H](C)[C@@H](O[C@@H]2O[C@H](C)C[C@H](N(C)C)[C@H]2O)[C@](C)(O)C[C@H]1C [syzx-126]
MIC values, Staphylococcus aureus CVCC26003 [1]: 4 ug/mi | MIC values, Actinobacillus pleuropneumoniae CVCC262 [2]: 4 ug/mi | MIC values, Haemophilus parasuis [3]: 4 ug/mi | MIC values, Pasteurella multocida CVCC399 [4]: 2 ug/mi | MIC values, Streptococcus equines CVCC556 [5]: 0.5 ug/mi

CCCN1C[C@H](C)[C@@H](O)[C@](C)(O)[C@@H](CC)OC(=O)[C@H](C)[C@@H](O[C@H]2C[C@@](C)(OC)[C@](O)(CNCc3cccc(OC)c3)[C@H](C)O2)[C@H](C)[C@@H](O[C@@H]2O[C@H](C)C[C@H](N(C)C)[C@H]2O)[C@](C)(O)C[C@H]1C [syzx-127]
MIC values, Staphylococcus aureus CVCC26003 [1]: 4 ug/mi | MIC values, Actinobacillus pleuropneumoniae CVCC262 [2]: 1 ug/mi | MIC values, Haemophilus parasuis [3]: 1 ug/mi | MIC values, Pasteurella multocida CVCC399 [4]: 8 ug/mi | MIC values, Streptococcus equines CVCC556 [5]: 0.25 ug/mi

— patent US9765105B2, “Macrolide compound” (Pulike Biological Engineering, Inc., priority 2013, dated 2017)
